Experimental data reported in patent US6770287B1, “Biocidal cellulosic material” (The Regents of the University of California, priority 2000, dated 2004).
Marks after values point to notes of the source that are not given here.

System: E. coli enhanced green fluorescent protein (B)GFP 0157:H7
Assay: Biocidal wood blocks: CFU recovered after contact
Assay type: cell-based
Conditions: for average percent reduction of bacterium as compared to the untreated control blocks: estimated from the data of all trials
Protocol: The blocks were prepared by dividing large cutting boards into squares with sides measuring 5 cm using a table saw. The blocks were of the face-grain configuration. The edges were then smoothened with 120 or 180 grit sandpaper as needed to achieve uniformity among all blocks. The blocks were visually inspected to be the correct size and any blocks that appeared to deviate from the standard were remeasured and discarded if they were an incorrect size.
The blocks (Bemis Manufacturing Company, 300 Mill Street, PO Box 901, Sheboygan Falls, Wis., 53085-0901) were labeled based on concentration and ascending numbers. The blocks were immersed in solutions containing the following two formulations, respectively: […]
And the blocks were taken out from the solutions after they are completely soaked by the chemicals, and then dried at 80° C. in an oven for a prolonged time till they are completely dry. The curing of the blocks was conducted at 150° C. for over 30 minutes.
A bleach process is necessary to activate the biocide. A bleach solution containing about 0.05% sodium hypochlorite was prepared from a commercial Clorox liquid (containing 5.25% sodium hypochlorite). The volume of the solution was based on a liquid to wood mass ratio of 50:1. The blocks were scrubbed lightly on a sponge saturated with the chlorine solution from the bath for five strokes. The blocks were placed face down in the diluted bleach solution for 15 minutes. After 15 minutes the blocks were transferred directly to a cooling rack (to allow even drying) in a laminar flow hood that had been previously sterilized with a 70% ethanol solution and left with the exhaust turned on. The blocks were then left in the laminar flow hood until completely dry (at least five hours).
1. A sample of E. coli enhanced green fluorescent protein (B)GFP 0157:H7 was inoculated into a test tube of LB broth with 0.01% ampicillin and 0.01% novobiocin antibiotics (to be referred to as LBAN). The test tube was labeled and then incubated at 37° C. for 24 hours. The sample was then serial diluted with LBAN broth. 0.1 mL of the broth was then inoculated onto LB or Brain Heart Infusion (BHI) agar, also with ampicillin and 0.01% novobiocin antibiotics. The concentrations of 10^−7, 10^−6, and 10^−5 were spread plated. These plates were allowed to incubate for 24 hours at 37° C. The CFU/mL was determined by averaging the colonies from the plates of the most easily countable concentration.
7. The timer was started and the inoculum was spread on the blocks at the rate of one per 30 seconds.
8. 0.2 mL of the inoculum was spread onto the blocks using the pipet tip and pipetter. A new pipet tip was used for each block.
9. After the correct (variable) contact time, the blocks were carefully pressed on the agar surface for 20 seconds and then the plates were inverted and placed in an incubator at 37° C. for 24 hours.
10. The colonies were counted for each plate and thus the kills were determined for each concentration.

[1] = trial A, 5% biocide, inoculum 2.5 × 10^5, contact time 5 minutes
[2] = trial A, 10% biocide, inoculum 2.5 × 10^5, contact time 5 minutes
[3] = trial B, 5% biocide, inoculum 1.8 × 10^5, contact time 5 minutes
[4] = trial B, 10% biocide, inoculum 1.8 × 10^5, contact time 5 minutes
[5] = trial C, 5% biocide, inoculum 1.4 × 10^5, contact time 5 minutes
[6] = trial C, 10% biocide, inoculum 1.4 × 10^5, contact time 5 minutes
[7] = trial D, 5% biocide, inoculum 1.4 × 10^5, contact time 5 minutes
[8] = trial D, 10% biocide, inoculum 1.4 × 10^5, contact time 5 minutes
[9] = trial E, 5% biocide, inoculum 1.0 × 10^4, contact time 5 minutes
[10] = trial E, 10% biocide, inoculum 1.0 × 10^4, contact time 5 minutes
[11] = trial F, 5% biocide, inoculum 1.0 × 10^4, contact time 5 minutes
[12] = trial F, 10% biocide, inoculum 1.0 × 10^4, contact time 5 minutes
[13] = trial G, 5% biocide, inoculum 3.3 × 10^4, contact time 2.5 minutes
[14] = trial G, 10% biocide, inoculum 3.3 × 10^4, contact time 2.5 minutes
[15] = trial H, 5% biocide, inoculum 3.3 × 10^4, contact time 5 minutes
[16] = trial H, 10% biocide, inoculum 3.3 × 10^4, contact time 5 minutes
[17] = trial I, 5% biocide, inoculum 1.0 × 10^4, contact time 5 minutes
[18] = trial I, 10% biocide, inoculum 1.0 × 10^4, contact time 5 minutes
[19] = trial J, 1st line, 5% biocide, inoculum 1.37 × 10^5, contact time 5 minutes
[20] = trial J, 1st line, 10% biocide, inoculum 1.37 × 10^5, contact time 5 minutes
[21] = trial J, 2nd line, 5% biocide, inoculum 1.37 × 10^5, contact time 5 minutes
[22] = trial J, 2nd line, 10% biocide, inoculum 1.37 × 10^5, contact time 5 minutes
[23] = trial K, New Blocks, 5% biocide, inoculum 1.2 × 10^4, contact time 5 minutes
[24] = trial K, New Blocks, 10% biocide, inoculum 1.2 × 10^4, contact time 5 minutes
[25] = trial K, Old Blocks, 5% biocide, inoculum 1.2 × 10^4, contact time 5 minutes
[26] = trial K, Old Blocks, 10% biocide, inoculum 1.2 × 10^4, contact time 5 minutes
[27] = trial L, New Blocks, 5% biocide, inoculum 8.0 × 10^1, contact time 5 minutes
[28] = trial L, New Blocks, 10% biocide, inoculum 8.0 × 10^1, contact time 5 minutes
[29] = trial L, Old Blocks, 5% biocide, inoculum 8.0 × 10^1, contact time 5 minutes
[30] = trial L, Old Blocks, 10% biocide, inoculum 8.0 × 10^1, contact time 5 minutes
[31] = trial M, New Blocks, 5% biocide, inoculum 6.45 × 10^3, contact time 10 minutes
[32] = trial M, New Blocks, 10% biocide, inoculum 6.45 × 10^3, contact time 10 minutes
[33] = trial M, Old Blocks, 5% biocide, inoculum 6.45 × 10^3, contact time 10 minutes
[34] = trial M, Old Blocks, 10% biocide, inoculum 6.45 × 10^3, contact time 10 minutes
[35] = trial N, New Blocks, 5% biocide, inoculum 6.6 × 10^4 CFU/mL, contact time 10 minutes
[36] = trial N, New Blocks, 10% biocide, inoculum 6.6 × 10^4 CFU/mL, contact time 10 minutes
[37] = trial N, Old Blocks, 5% biocide, inoculum 6.6 × 10^4 CFU/mL, contact time 10 minutes
[38] = trial N, Old Blocks, 10% biocide, inoculum 6.6 × 10^4 CFU/mL, contact time 10 minutes

Compound: CC1(C)C(=O)N(CO)C(=O)N1CO [Anti-2, 1,3-dimethylol-5,5-dimethylhydantoin]
- average percent reduction of bacterium as compared to the untreated control blocks (5% blocks): about 86%
- average percent reduction of bacterium as compared to the untreated control blocks (10% concentration blocks): 91%
- means CFU/block ± standard deviation [1]: 125.3 ± 74.1 CFU/block
- percentage reduction compared to control [1]: (85.0%)**
- means CFU/block ± standard deviation [2]: 166.3 ± 132.2 CFU/block
- percentage reduction compared to control [2]: (81.2%)**
- means CFU/block ± standard deviation [3]: 11.6 ± 11.4 CFU/block
- percentage reduction compared to control [3]: (97.6%)
- means CFU/block ± standard deviation [4]: 26.3 ± 27.6 CFU/block
- percentage reduction compared to control [4]: (94.5%)
- means CFU/block ± standard deviation [5]: 65 ± 23.5 CFU/block
- percentage reduction compared to control [5]: (85.4%)
- means CFU/block ± standard deviation [6]: 48 ± 44.2 CFU/block
- percentage reduction compared to control [6]: (89.2%)
- means CFU/block ± standard deviation [7]: 19.8 ± 6.8 CFU/block
- percentage reduction compared to control [7]: (95.0%)
- means CFU/block ± standard deviation [8]: 26.8 ± 20.1 CFU/block
- percentage reduction compared to control [8]: (93.2%)
- means CFU/block ± standard deviation [9]: 2.5 ± 2.9 CFU/block
- percentage reduction compared to control [9]: (97.7%)
- means CFU/block ± standard deviation [10]: 2.3 ± 3.4 CFU/block
- percentage reduction compared to control [10]: (97.8%)
- means CFU/block ± standard deviation [11]: 25.9 ± 13.8 CFU/block
- percentage reduction compared to control [11]: (94.3%)
- means CFU/block ± standard deviation [12]: 31.7 ± 25.1 CFU/block
- percentage reduction compared to control [12]: (93.1%)
- means CFU/block ± standard deviation [13]: 20.8 ± 13.8 CFU/block
- percentage reduction compared to control [13]: (89.8%)
- means CFU/block ± standard deviation [14]: 10.3 ± 7.8 CFU/block
- percentage reduction compared to control [14]: (95.0%)
- means CFU/block ± standard deviation [15]: 14 ± 11.4 CFU/block
- percentage reduction compared to control [15]: (80.1%)
- means CFU/block ± standard deviation [16]: 7.4 ± 4.0 CFU/block
- percentage reduction compared to control [16]: (89.9%)
- means CFU/block ± standard deviation [17]: 12.3 ± 8.4 CFU/block
- percentage reduction compared to control [17]: (73.8%)
- means CFU/block ± standard deviation [18]: 6 ± 4.2 CFU/block
- percentage reduction compared to control [18]: (87.2%)
- means CFU/block ± standard deviation [19]: 63.7 ± 45.1 CFU/block
- percentage reduction compared to control [19]: (80.6%)
- means CFU/block ± standard deviation [20]: 37.9 ± 14.3 CFU/block
- percentage reduction compared to control [20]: (88.5%)
- means CFU/block ± standard deviation [21]: 45.8 ± 19.2 CFU/block
- percentage reduction compared to control [21]: (85.8%)
- means CFU/block ± standard deviation [22]: 14.6 ± 12.5 CFU/block
- percentage reduction compared to control [22]: (95.5%)
- means CFU/block ± standard deviation (trial J, 3rd line, 5% biocide, inoculum 1.37 × 10^5, contact time 5 minutes): 37.4 ± 15.8 CFU/block
- means CFU/block ± standard deviation (trial J, 3rd line, 10% biocide, inoculum 1.37 × 10^5, contact time 5 minutes): 29.7 ± 25.1 CFU/block
- means CFU/block ± standard deviation [23]: 7.7 ± 3.0 CFU/block
- percentage reduction compared to control [23]: (90.7%)
- means CFU/block ± standard deviation [24]: 4.9 ± 5.8 CFU/block
- percentage reduction compared to control [24]: (94.1%)
- means CFU/block ± standard deviation [25]: 12.0 ± 9.4 CFU/block
- percentage reduction compared to control [25]: (77.3%)
- means CFU/block ± standard deviation [26]: 9.3 ± 5.4 CFU/block
- percentage reduction compared to control [26]: (82.4%)
- means CFU/block ± standard deviation [27]: 0.17 ± 0.41 CFU/block
- percentage reduction compared to control [27]: (98.1%)
- means CFU/block ± standard deviation [28]: 0 ± 0 CFU/block
- percentage reduction compared to control [28]: (100%
- means CFU/block ± standard deviation [29]: 1.3 ± 1.3 CFU/block
- percentage reduction compared to control [29]: (88.9%)
- means CFU/block ± standard deviation [30]: 0.67 ± 0.71 CFU/block
- percentage reduction compared to control [30]: (94.3%)
- means CFU/block ± standard deviation [31]: 3.3 ± 2.4 CFU/block
- percentage reduction compared to control [31]: (60.2%
- means CFU/block ± standard deviation [32]: 1.6 ± 1.8 CFU/block
- percentage reduction compared to control [32]: (80.7%)
- means CFU/block ± standard deviation [33]: 3.3 ± 2.1 CFU/block
- percentage reduction compared to control [33]: (82.4%)
- means CFU/block ± standard deviation [34]: 3.3 ± 2.4 CFU/block
- percentage reduction compared to control [34]: (82.4%)
- means CFU/block ± standard deviation [35]: 17.8 ± 4.8 CFU/block
- percentage reduction compared to control [35]: (88.2%)
- means CFU/block ± standard deviation [36]: 6.2 ± 5.8 CFU/block
- percentage reduction compared to control [36]: (95.9%)
- means CFU/block ± standard deviation [37]: 20.7 ± 6.1 CFU/block
- percentage reduction compared to control [37]: (86.5%)
- means CFU/block ± standard deviation [38]: 15.9 ± 6.7 CFU/block
- percentage reduction compared to control [38]: (89.6%)
- more effective reductions of the bacterium on newer blocks than on old blocks (trials J-N, new versus old blocks): 5-10%
